# Legend:
# [1] = system: intracellular tyrosine kinase; assay: Inhibition test of intracellular tyrosine kinase (tyrosine-phosphorylated protein, Western blot); type: cell-based; settings: Rattus norvegicus, SR3Y1; SR-3Y1 cells, 15 hours culture, tyrosine-phosphorylated protein reduced to half vs control; read-out: Inhibitory activity of intracellular tyrosine kinase IC50
# Description: SR-3Y1 cells were cultured at 37° C. for 15 hours in an atmosphere of 5% carbon dioxide, using Dulbecco's modified Eagle's medium (DMEM) containing 10% fetal calf serum (FCS), to which each radicicol derivative to be tested had been added in varied concentration. The thus cultured cells were lysed at 4° C. for 20 minutes in a cooled buffer for lysis use (50 mM Tris HCl, pH 7.5, 150 mM sodium chloride (NaCl), 1% Triton X-100, 0.1% sodium dodecyl sulfate (SDS), 1% sodium deoxycholate, 2 mM ethylenediaminetetraacetic acid (EDTA), 1 mM phenylmethanesulfonyl fluoride (PMSF), 20 μM leupeptin, 0.15 unit/ml aprotinin, 1 mM sodium orthovanadate (Na3VO4) and then centrifuged at 20,000 G for 30 minutes. After measuring protein concentration in the resulting supernatant fluid, samples were adjusted to the same protein quantity per lane to carry out separation of protein by SDS-PAGE. […] Detection was carried out using ECL reagent (Amersham Co.), and the amount of tyrosine-phosphorylated protein was determined by scanning the density of bands prepared on an X-ray film. […]
# [2] = system: rat normal fibroblast cell line 3Y1-B; assay: Growth inhibition test (MTT) on 3Y1-B; type: cell-based; settings: 3Y1-B cells, 72 hours
# Description: (§1) The cells were inoculated into a 96 well microplate (# 167008, manufactured by Nunc) in an amount of 1,000 cells per well and pre-cultured at 37° C. for 24 hours in a 5% carbon dioxide gas incubator using Dulbacco's modified Eagle's medium (DMEM) which had been supplemented with 10% fetal calf serum (FCS). Next, a DMSO solution of each test compound which had been adjusted to 10 mM was serially diluted with the culturing medium and add to the wells in 50 μl portions. Thereafter, the culturing was continued at 37° C. for 72 hours in the 5% carbon dioxide gas incubator. Five hours before completion of the culturing, 3-(4,5-dimethylthiazo-2-yl)-2,5-diphenyltetrazolium bromide (manufactured by Sigma, hereinafter referred to as “MTT”) which had been dissolved in the culturing medium to a final concentration of […] was dispensed into the wells in 50 μl portions. After completion of the culturing, DMSO was dispensed into the wells in […] portions, and the plate was vigorously stirred using a plate mixer to dissolve MTT-formazan crystals completely. Thereafter, absorbance at 550 nm was measured using a microplate reader MTP-32 (manufactured by Corona Denki). The cell growth inhibition activity was expressed by 50% inhibition concentration (IC50).
# [3] = system: v-src oncogene transformed cell line SR-3Y1; assay: Growth inhibition test (MTT) on SR-3Y1; type: cell-based; settings: Rattus norvegicus, SR3Y1, SR-3Y1 cells, 72 hours
# Description: as §1
# Raf-1 protein = assay: Effect of decreasing intracellular Raf-1 protein quantity in KNRK 5.2 cells; type: cell-based, rat; settings: 40 hours, Raf-1 protein/total Erk2 protein ratio halved, read-out: Raf-1 protein quantity decrease: IC50
# Description: (§2) Activated K-Ras gene-introduced rat kidney epithelial cell line KNRK 5.2 was cultured at 37° C. for 40 hours in an atmosphere of 5% carbon dioxide gas using Dulbecco's modified Eagle's medium (DMEM) which was supplemented with 10% fetal calf serum (FCS) and to which was added each radicicol derivative at respective test concentration. The resulting cells were lysed for 30 minutes at 4° C. in a cooled buffer for lysis use [50 mM HEPES NaOH, pH 7.4, 250 mM sodium chloride (NaCl), 1 mM ethylenediaminetetraacetic acid (EDTA), 1% Nonidet P-40 (NP40), 1 mM dithiothreitol (DTT), 1 mM phenylmethylsulfonyl fluoride (PMSF), 5 μg/ml leupeptin, 2 mM sodium orthovanadate (Na3VO4), 1 mM sodium fluoride (NaF), 10 mM β-glycerophosphate] and then centrifuged at 30,000 G for 10 minutes. The protein content of the thus prepared supernatant fluids was measured to prepare samples having the same protein quantity for each lane, and then separation of proteins was carried out by SDS-PAGE. The thus separated protein samples were transferred on a polyvinylidene difluoride (PVDF) membrane, and then anti-phosphorylation MAPK antibody (anti-phospho MAPK, manufactured by New England Biolabs), anti-Erk2 antibody (anti-Erk2, manufactured by Upstate Biotechnology) and anti-Raf-1 antibody (anti-Raf-1 (C-12), manufactured by Santa Cruz Biotechnology) were added thereto as primary antibodies and allowed to react with the proteins on the membrane. Thereafter, a horseradish peroxidase-labeled secondary antibody (anti-rabbit Ig antibody or anti-mouse Ig antibody, manufactured by Amersham) capable of reacting with respective primary antibodies was added thereto as the secondary antibody to carry out the reaction. Detection was carried out using ECL reagent (manufactured by Amersham), and the amount of phosphorylated Erk2 protein, total Erk2 protein and Raf-1 protein was determined by carrying out density scanning of the bands generated on the X-ray film. The Erk2 phosphorylation inhibition activity of radicicol derivatives is determined by calculating the ratio of phosphorylated Erk2 protein (phosphorylated Erk2 protein/total Erk2 protein) based on the results prepared from the samples of respective drug concentrations, which is expressed as the concentration of each derivative (IC50) by which the ratio becomes half in comparison with the case in which the drug is not added.
# Erk2 phosphorylation = Erk2 phosphorylation inhibition activity in KNRK 5.2 cells; type: cell-based; settings: Rattus norvegicus, 40 hours, phosphorylated Erk2/total Erk2 ratio halved
# Description: as §2
# [4] = system: human breast cancer MX-1 solid tumor; assay: Antitumor test on nude mouse-transplanted human breast cancer MX-1 solid tumor; type: in vivo; settings: tumor volume ratio, 100 mg/kg per day i.v. once a day for 5 days, measured day 12 after administration
# Description: From a tumor lump of a human breast cancer cell line MX-1 subcultured in nude mice (BALB/c nu/nu mice: CLEA Japan), a portion showing good growth was selected and cut into a 2 mm square fragment which was then transplanted under the abdominal side skin of each male nude mouse of 7 to 9 weeks of age using a trocar. The tumor size was measured on the 13th day after the tumor transplantation to select properly growing tumors having a tumor volume of 100 to 300 mm^3 (calculated by a calculation formula of “major axis×minor axis^2×½”), the mice were optionally grouped into 5 animals per group, and then each test compound which had been dissolved in a 7.5% cremohor EL (manufactured by Sigma)/5% dimethylacetamide (DMA)/87.5% physiological saline solution was administered to the mice by intravenous injection at a dosage of 0.05 ml (100 mg/kg) per day, once a day for 5 days. The antitumor activity of each test compound was expressed by a ratio (T/C) of the tumor volume (T) in the test drug-administered group to the tumor volume (C) in the control group on the 12th or 14th day after administration of the test compound.
Structure (SMILES),IC50 [1],IC50 [2],IC50 [3],IC50 (Raf-1 protein),IC50 (Erk2 phosphorylation),T/C (%) [4]
CCOC(=O)ON=C1/C=C/C=C\C2OC2CC(C)OC(=O)c2c(O)cc(O)c(Cl)c2C1 (stereo not shown) [Compound 73],130 nM,–,–,–,–,–
CC1CC2OC2C=CC=CC(=NOCc2ccccc2S(=O)(=O)N(C)C)Cc2c(Cl)c(O)cc(O)c2C(=O)O1 (stereo not shown) [Compound 50],–,120 nM,21 nM,340 nM,350 nM,–
"C[C@@H]1C[C@H]2O[C@@H]2/C=C\C=C\C(=O)Cc2c(Cl)c(O)cc(O)c2C(=O)O1 [Radicicol, radicicol]",370 nM,780 nM,42 nM,–,–,–
CC1CC2OC2C=CC=CC(=NOCCN2CCCC2=O)Cc2c(Cl)c(O)cc(O)c2C(=O)O1 (stereo not shown) [Compound 69],–,8 nM,4 nM,120 nM,60 nM,4%
CC1CC2OC2C=CC=CC(=NOCCCCN2CCOCC2)Cc2c(Cl)c(O)cc(O)c2C(=O)O1 (stereo not shown) [Compound 64],–,–,–,190 nM,110 nM,–
CC1CC2OC2C=CC=CC(=NOCc2cccnc2)Cc2c(Cl)c(O)cc(O)c2C(=O)O1 (stereo not shown) [Compound 53],–,8 nM,< 4 nM,380 nM,70 nM,46%
CNC(=O)ON=C1/C=C/C=C\C2OC2CC(C)OC(=O)c2c(O)cc(O)c(Cl)c2C1 (stereo not shown) [Compound 74],–,72 nM,27 nM,–,–,–
